Source: US20030003517A1, “Methods of detecting dissociated nuclear hormone receptor ligands” (priority 2001, published 2003)
Changes are numbered by the printed parent chain.

Key:
[1] = biological target: T1, RARα/RXRα heterodimer bound to a DR-5 retinoic acid receptor response element (RARE) (Homo sapiens, UniProt P10276); assay: DNA dependent coregulator recruitment assay (ternary complex immunoprecipitation from transfected CV-1 whole cell extracts); assay type: biochemical; details: for ligand mediated dissociation of N-CoR: wild type RARα ternary complex; for SRC-1 recruitment to the wild type ternary complex: wild type RARα/RXRα, FIG. 1, FIG. 5B
T1 construct: expressed in transfected cells; host or cells: CV-1 cells, transient transfection; whole cell extract
T1 sequence (P10276 1-462): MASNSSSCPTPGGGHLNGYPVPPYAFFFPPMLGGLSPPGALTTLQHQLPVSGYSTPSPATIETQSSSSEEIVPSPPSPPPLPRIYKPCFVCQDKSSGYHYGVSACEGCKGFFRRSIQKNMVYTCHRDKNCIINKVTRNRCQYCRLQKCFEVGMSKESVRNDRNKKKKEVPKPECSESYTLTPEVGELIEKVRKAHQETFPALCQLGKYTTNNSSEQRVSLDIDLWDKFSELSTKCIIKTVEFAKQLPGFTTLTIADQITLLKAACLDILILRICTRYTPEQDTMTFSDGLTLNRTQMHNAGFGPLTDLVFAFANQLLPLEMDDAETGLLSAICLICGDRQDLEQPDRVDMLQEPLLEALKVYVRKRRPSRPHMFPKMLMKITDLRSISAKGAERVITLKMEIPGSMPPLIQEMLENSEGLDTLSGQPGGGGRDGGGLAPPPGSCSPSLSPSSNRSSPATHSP
T1 sequence (P19793 1-462 partner): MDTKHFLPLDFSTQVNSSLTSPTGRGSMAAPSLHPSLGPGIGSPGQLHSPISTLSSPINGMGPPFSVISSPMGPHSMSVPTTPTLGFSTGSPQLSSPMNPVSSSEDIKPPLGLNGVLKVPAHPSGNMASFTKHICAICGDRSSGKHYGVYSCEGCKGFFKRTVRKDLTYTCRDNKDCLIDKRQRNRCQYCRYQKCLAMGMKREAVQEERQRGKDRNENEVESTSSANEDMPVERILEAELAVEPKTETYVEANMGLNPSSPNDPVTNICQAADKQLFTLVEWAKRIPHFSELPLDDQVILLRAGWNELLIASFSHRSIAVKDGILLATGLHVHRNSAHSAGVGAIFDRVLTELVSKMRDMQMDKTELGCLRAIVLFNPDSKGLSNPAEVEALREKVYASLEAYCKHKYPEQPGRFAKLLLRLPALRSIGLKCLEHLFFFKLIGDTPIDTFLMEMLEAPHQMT
Method: Cells were transfected and cell extracts prepared essentially as follows. For whole cell extracts, CV-1 cells were cultured with D-MEM (Gibco-BRL Life Technologies; Rockville, Md.) containing 10% activated charcoal extracted fetal bovine serum (Gemini Bio-Products). At a density of 40˜60% (15-cm plate, Falcon; Fort Worth, Tex.), cells were transiently transfected with 15 μl FuGene 6 Transfection Reagent (Roche Diagnostics) with 0.5 ug of pRS-RXRα, and 5 ug of either pcDNA3.1-hRARα-V5, pcDNA3.1-hRARβ-V5 or pcDNA3.1-hRARγ-V5 per plate. After two days, cells were rinsed twice with PBS and lysed in cold NET buffer (20 mM Tris-Cl [pH8.0], 200 mM NaCl, 1 mM EDTA, 0.1% NP-40, 10% glycerol) containing protease inhibitors, homogenized by QIAshredder (Qiagen; Valencia, Calif.), and clarified by centrifugation.
Immunoprecipitations and western analyses were performed as follows. CV-1 whole cell extract from transfected cells (1 mg) was used for each immunoprecipitation. Cell lysates were incubated with ligands on ice for 1 hour. […] After a 1 hour incubation on ice with primary antibody (mouse anti-V5, Invitrogen), protein G-agarose (SIGMA) was added and samples were rocked overnight at 4° C. […] Membranes were probed with the indicated antibodies in PBS-T buffer (PBS with 0.1% Tween-20) containing 5% nonfat dry milk, and washed in PBS-T buffer. Primary antibodies (#SC553, rabbit anti-RXRα; #SC1609, goat anti-N-CoR) were obtained from Santa Cruz Biotech and Affinity BioReagents (#MA1-840, mouse anti-SRC-1; Golden, Colo.).
The DNA dependent coregulator recruitment assay was used to measure the ability of RARα selective ligands shown in Table 2 to recruit the coactivators SRC-1 and ACTR to the RARα/RXRα heterodimer bound to a DR-5 retinoic acid receptor response element (RARE).

ER-RARα = ER-RARα chimeric receptor transactivation assay in transfected CV-1 cells (luciferase); assay type: cell-based; details: CV-1 cells transfected with ER-RARα; highest dose tested 1 μM; FIG. 3A
Method: (§1) RAR transactivation assays were performed essentially as previously described. For analysis of ER-RARα chimeric receptor transactivation, 5×10^3 CV-1 cells were plated per well of a 96-well microtiter plate and were transiently transfected with Lipofectamine and the indicated DNA. Specifically, transfections were performed with 0.1 μg of pERE-tk-Luc reporter, which contains the estrogen regulated element of the Xenopus vittelogenin A2 gene inserted into the plasmid tk-Luciferase, and 0.01 μg of the SV-40 based vector pECE carrying a chimeric ER-RAR receptor consisting of the estrogen receptor A/B and DNA binding domains fused to the DEF domain of RARα, β or γ. Alternatively, cells were cotransfected with the reporter plasmid MTV-4 (R5G)-Luciferase together with the plasmid pRS-hRXRα and either pRS-RARα-P-GR, pcDNA3-RARβ-P-GR, or pcDNA3-RARγ-P-GR as previously described (Klein et al., J. Biol. Chem. 271:22692-22696 (1996)). After eighteen hours, cells were rinsed with phosphate buffered saline (PBS) and fed with D-MEM (Gibco-BRL) containing 10% activated charcoal extracted fetal bovine serum (Gemini Bio-Products). Cells were treated with retinoids for 18 hours after which they were lysed; luciferase activity was measured as previously described, with luciferase values representing the mean±SEM of quadruplicate determinations.

[2] = biological target: T2, RARα R272-A containing ternary complex (Homo sapiens, UniProt P10276, R272A); assay: Ternary complex coregulator assay with RARα-V5 mutant R272-A; assay type: biochemical; details: 1 μM ligand; FIG. 2
T2 construct: expressed in transfected cells; host or cells: CV-1 cells, transient transfection; whole cell extract
T2 sequence (P10276 1-462 R272A): T1 sequence (P10276 1-462) with R272A
T2 sequence (P19793 1-462 partner): T1 sequence (P19793 1-462 partner)
Method: Immunoprecipitations and western analyses were performed as follows. CV-1 whole cell extract from transfected cells (1 mg) was used for each immunoprecipitation. Cell lysates were incubated with ligands on ice for 1 hour. […] After a 1 hour incubation on ice with primary antibody (mouse anti-V5, Invitrogen), protein G-agarose (SIGMA) was added and samples were rocked overnight at 4° C. […] Membranes were probed with the indicated antibodies in PBS-T buffer (PBS with 0.1% Tween-20) containing 5% nonfat dry milk, and washed in PBS-T buffer. […]

RARα(R272-A)-P-GR = RARα(R272-A)-P-GR retinoid reporter transactivation in CV-1 cells; assay type: cell-based; details: FIG. 4
Method: RAR transactivation assays were performed essentially as previously described. For analysis of ER-RARα chimeric receptor transactivation, 5×10^3 CV-1 cells were plated per well of a 96-well microtiter plate and were transiently transfected with Lipofectamine and the indicated DNA. […] After eighteen hours, cells were rinsed with phosphate buffered saline (PBS) and fed with D-MEM (Gibco-BRL) containing 10% activated charcoal extracted fetal bovine serum (Gemini Bio-Products). Cells were treated with retinoids for 18 hours after which they were lysed; luciferase activity was measured as previously described, with luciferase values representing the mean±SEM of quadruplicate determinations.

[3] = test system: RARα-P-GR (wild type RARα); assay: RARα-P-GR retinoid reporter transactivation in CV-1 cells; assay type: cell-based; details: FIG. 4
Method: as §1, with “After eighteen hours, cells were rinsed with phosphate buffered saline (PBS) and fed with D-MEM (Gibco-BRL) containing 10% activated charcoal extracted fetal bovine serum (Gemini Bio-Products).” left out
The RAR=60 R272-A mutant was analyzed for dominant negative activity using a retinoid reporter system responsive to transfected RARs recognizing RAREs containing a glucocorticoid receptor half-site (Klein et al., supra, 1996).

AP-1 = assay: Anti-AP1 assay: phorbol ester stimulated collagenase-promoter reporter containing an AP-1 response element; assay type: cell-based; details: for anti-AP-1 activity (antagonism of TPA stimulated collagenase reporter activity): FIG. 6
Method: The ability of AGN196382 to antagonize phorbol ester stimulated transcription was assayed using a collagenase-promoter reporter construct containing an AP-1 response element. […] Specifically, detection of anti-AP-1 activity by AGN196382 was only detectable at doses greater than 10 μM; similarly, detection of SRC-1 recruitment to the ternary complex by 196382 was apparent only at doses greater than 10 μM. Such elevated doses of AGN196382, while sufficient for efficacious anti-AP-1 activity, are not sufficient for efficient transcriptional activation of RARα.

[4] = biological target: RARα/RXRα heterodimer (wild type RARα-V5 with RXRα) in the RAR/RXR/DNA ternary complex (human) (UniProt P19793); assay: co-immunoprecipitation of ternary complex, western blot; with 1 µM AGN194794, relative to 1 µM TTNPB
[5] = biological target: RARα/RXRα heterodimer (wild type RARα-V5 with RXRα) in the RAR/RXR/DNA ternary complex (human) (UniProt P19793); assay: co-immunoprecipitation of ternary complex, western blot; with 1 µM AGN196382, relative to 1 µM TTNPB

Row | Compound | ligand mediated dissociation of N-CoR [1] | transactivation at RARα (ER-RARα) | p300 recruitment relative to TTNPB ([1]; ligands 1 μM, FIG. 3B) | SRC-1 recruitment to the wild type ternary complex [1] | anti-AP-1 activity (antagonism of TPA stimulated collagenase reporter activity) (AP-1) | other results
1 | CC(C)c1cc(C(=O)Nc2ccc(C(=O)O)c(F)c2)c(O)c(C(C)C)c1 [AGN194365] | dissociation of N-CoR | potent and effective transactivation properties |  |  |  | SRC-1 recruitment compared to TTNPB ([1]; ligands 1 μM, FIG. 3B): 65%
2 | CC12CCC(C)(CC1)c1c2cc(C(=O)Nc2cc(F)c(C(=O)O)c(F)c2)c(O)c1Br [AGN194794] | full N-CoR disengagement | activated RARα, albeit with slightly less efficacy and potency | 34% | essentially identical for the two ligands |  | ligand mediated dissociation of N-CoR ([1]; listed as 194794): dissociation of N-CoR
3 | CCOc1c(C(C)C)cc(C(=O)Nc2cc(F)c(C(=O)O)c(F)c2)cc1C(C)C [AGN196382] | nearly absent | no activity at RARα except at the highest dose (1 μM) tested | 30% | essentially identical for the two ligands | similarly efficacious | SRC-1 recruitment to RARα R272-A ternary complex [2]: lack of recruitment of SRC-1; activation of RARα(R272-A) (RARα(R272-A)-P-GR): not activated at all; dose at which SRC-1 recruitment to the ternary complex is apparent [1]: greater than 10 μM; ligand mediated dissociation of N-CoR ([1]; listed as 196382): significantly impaired; activation of wild type RARα [3]: significantly reduced relative to TTNPB; dose at which anti-AP-1 activity is detectable (AP-1): greater than 10 μM
4 | CCOc1c(C2CC2)cc(C(=O)Nc2cc(F)c(C(=O)O)c(F)c2)cc1C(C)(C)C [AGN196412] | significantly impaired | no activity at RARα except at the highest dose (1 μM) tested |  |  |  | ACTR recruitment compared to TTNPB ([1]; ligands 1 μM, FIG. 3B): 65%
5 | C/C(=C\c1ccc(C(=O)O)cc1)c1ccc2c(c1)C(C)(C)CCC2(C)C [TTNPB, reference compound] |  |  |  |  | potent and efficacious anti-AP-1 activity | 
6 | p300 (coactivator p300/CBP) (from UniProt Q09472 2-2414) |  |  |  |  |  | % recruitment relative to TTNPB [4]: 34%; % recruitment relative to TTNPB [5]: 30%
